Target: T1, Human ENaC δ, β and γ subunit (Homo sapiens, UniProt P51168+P51170+P51172)
T1 construct: expressed in transfected cells; host or cells: Xenopus laevis (African clawed frog) oocytes injected with cRNA
T1 sequence (P51172 1-638 isoform P51172-1): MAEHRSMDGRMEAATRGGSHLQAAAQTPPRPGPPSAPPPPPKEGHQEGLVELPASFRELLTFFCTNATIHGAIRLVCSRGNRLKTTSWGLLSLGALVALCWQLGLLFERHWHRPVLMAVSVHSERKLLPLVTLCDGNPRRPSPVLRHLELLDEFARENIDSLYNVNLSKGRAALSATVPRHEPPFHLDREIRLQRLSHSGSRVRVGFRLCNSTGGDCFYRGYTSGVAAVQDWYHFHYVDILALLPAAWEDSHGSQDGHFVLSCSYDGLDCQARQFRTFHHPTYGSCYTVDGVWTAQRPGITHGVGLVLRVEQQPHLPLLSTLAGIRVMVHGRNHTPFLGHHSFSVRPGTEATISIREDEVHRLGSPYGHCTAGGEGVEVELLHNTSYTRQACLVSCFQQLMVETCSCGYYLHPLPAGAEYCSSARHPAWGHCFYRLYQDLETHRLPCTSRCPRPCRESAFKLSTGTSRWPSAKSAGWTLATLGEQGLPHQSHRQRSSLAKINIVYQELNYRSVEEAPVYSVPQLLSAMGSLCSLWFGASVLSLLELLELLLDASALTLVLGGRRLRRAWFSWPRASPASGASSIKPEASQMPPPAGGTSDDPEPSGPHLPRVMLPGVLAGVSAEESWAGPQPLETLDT
T1 sequence (P51168 1-640): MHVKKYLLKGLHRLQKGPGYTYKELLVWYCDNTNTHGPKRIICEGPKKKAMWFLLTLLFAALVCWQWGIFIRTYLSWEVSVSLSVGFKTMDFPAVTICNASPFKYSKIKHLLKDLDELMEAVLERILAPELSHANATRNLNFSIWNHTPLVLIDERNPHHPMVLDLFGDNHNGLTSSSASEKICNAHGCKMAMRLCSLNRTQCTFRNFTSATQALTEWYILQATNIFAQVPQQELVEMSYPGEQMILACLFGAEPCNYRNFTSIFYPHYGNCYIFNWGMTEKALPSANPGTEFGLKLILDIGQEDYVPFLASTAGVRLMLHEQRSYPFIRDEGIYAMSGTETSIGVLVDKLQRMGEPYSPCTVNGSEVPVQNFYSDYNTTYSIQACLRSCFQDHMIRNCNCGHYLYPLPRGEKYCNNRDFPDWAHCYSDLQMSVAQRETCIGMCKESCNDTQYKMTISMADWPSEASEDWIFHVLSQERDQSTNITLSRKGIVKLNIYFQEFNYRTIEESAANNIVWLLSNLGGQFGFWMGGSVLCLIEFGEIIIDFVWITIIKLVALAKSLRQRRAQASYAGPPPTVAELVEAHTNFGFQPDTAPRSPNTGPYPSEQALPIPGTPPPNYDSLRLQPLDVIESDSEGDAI
T1 sequence (P51170 1-649): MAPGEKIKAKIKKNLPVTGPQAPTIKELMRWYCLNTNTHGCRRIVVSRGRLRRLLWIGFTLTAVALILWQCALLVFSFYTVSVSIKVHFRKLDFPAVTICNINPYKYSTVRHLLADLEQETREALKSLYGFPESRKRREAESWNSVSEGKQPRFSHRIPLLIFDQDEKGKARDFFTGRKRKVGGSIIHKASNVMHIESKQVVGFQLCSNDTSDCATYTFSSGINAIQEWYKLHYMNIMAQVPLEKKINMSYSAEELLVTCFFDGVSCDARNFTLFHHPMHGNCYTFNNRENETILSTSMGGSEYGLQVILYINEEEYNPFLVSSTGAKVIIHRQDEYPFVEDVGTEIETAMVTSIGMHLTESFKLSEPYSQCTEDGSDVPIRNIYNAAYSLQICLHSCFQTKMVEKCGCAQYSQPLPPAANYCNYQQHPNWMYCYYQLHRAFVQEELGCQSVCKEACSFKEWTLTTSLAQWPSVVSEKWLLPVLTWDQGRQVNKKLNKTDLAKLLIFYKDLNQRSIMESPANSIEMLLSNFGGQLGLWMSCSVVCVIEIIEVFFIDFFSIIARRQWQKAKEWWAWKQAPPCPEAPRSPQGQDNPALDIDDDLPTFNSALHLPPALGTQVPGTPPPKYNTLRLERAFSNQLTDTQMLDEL
Test: Measurement of ENaC activation potency (two electrode voltage clamp current in ENaC-expressing oocyte)
Assay type: cell-based
Conditions: lowest concentration increasing the current value by not less than 10% vs before addition
Method: ENaC activation current value, namely, the inward current in ENaC-expressing oocyte was measured as follows.
According to the method described in Motonao Nakamura, Takao Shimizu: Experiment of African clawed frog oocyte, Experimental Medicine Vol. 11, No. 3, 224-232 (1993), oocyte was collected from African clawed frog, […], and the current value was measured by a Two Electrode Voltage Clamp technique. In the present invention, ND96 (96 mM NaCl, 2 mM KCl, 1 mM MgCl2, 5 mM Hepes, 1.8 mM CaCl2, pH 7.6) was used instead of MBS buffer in the above-mentioned document. Injector NANOLITER 2000 manufactured by World Precision Instruments was used for microinjection, OpusXpress 6000A manufactured by Molecular Devices was used for current value measurement by a Two Electrode Voltage Clamp technique, and Clampfit 10.2 software manufactured by Molecular Devices was used for data analysis.
Human ENaC δ, β and γ subunit genes shown by SEQ ID NOs: 1, 2 and 3, respectively, in the Sequence Listing were each cloned into a plasmid vector, and used as a template DNA for cRNA synthesis. cRNA was synthesized using MEGAscript kit manufactured by Ambion and according to the method of the manual of the manufacturer.
A mixture of the same amount of ENaC δ subunit cRNA (0.4 to 0.8 μg/μL), and β and γ subunits cRNA (0.4 μg/μL) was injected into the oocyte of African clawed frog at 27.6 nL per oocyte, and the oocyte was cultured for 16 hours to 72 hours. Thereafter, the oocyte was set on a measuring apparatus OpusXpress 6000A, the electrodes were inserted into the oocyte, the voltage was clamped at a level lower by −30 mV than the resting membrane potential by a Two Electrode Voltage Clamp technique, and the current value was measured.
To measure the ENaC activation potency, oocyte was stimulated with each test compound, and the minimum effective dose (hereinafter to be abbreviated as MED) of the compound at the time point when the electric current started to increase was measured. In this case, the minimum effective dose of the stimulation compound that increased the current value by not less than 10%, as compared to the current value before addition of the compound and without stimulation, was taken as MED. A smaller MED means higher ENaC activation potency.
Each test compound was directly dissolved in ND96, or first dissolved in dimethyl sulfoxide (DMSO) to 100 mM, and then prepared by diluting the solution with ND96 to a concentration used for the evaluation. The concentration of the test compound in ND96 was prepared to various concentrations within the range of 0.1 nM to 300 μm.
ND96 as a perfusion fluid was flowed at a rate of 0.5 mL/min through the measuring apparatus OpusXpress 6000A on which ENaC-expressing oocyte was set, the perfusion fluid was temporarily stopped every 3 minutes to add a test compound solution (0.25 mL) dissolved in ND96 at a rate of 0.5 mL/minute. In this way, the test compound was contacted with ENaC-expressing oocyte, and whether ENaC is activated by the compound was examined by measuring the current value. After addition of the test compound, feeding of the perfusion fluid was resumed to wash away the compound to be ready for the next addition of the compound.
The compound was added successively from a low concentration to a high concentration to stimulate ENaC-expressing oocyte. The concentrations actually added was, for example, 1 nM, 3 nM, 10 nM, 30 nM, 100 nM, 300 nM; 1 μM, 3 μM, 10 μm, 30 μm, 100 μm, 300 μm; 1.2 μM, 6 μM, 30 μm, 150 μm of one test compound. The compound was added from low concentrations to high concentrations at 3 minute intervals. The first compound was added from a low concentration to a high concentration, then the second and the third compounds were similarly added successively to the same oocyte, and changes in the current value were measured. The current value was continuously measured from the start to the end of the experiment. […]

Structure (SMILES) | MED value (minimum effective dose)
O=C(CCc1ccccc1)N[C@@H](Cc1c[nH]c2ccc(O)cc12)C(=O)O [Example 74] | 10 µM
CC(Cc1ccccc1)(NC(=O)CCc1ccccc1)C(=O)O (stereo not shown) [Example 75] | 3 to 10 µM
O=C(CCc1ccccc1)NC(Cc1c[nH]c2ccc(F)cc12)C(=O)O (stereo not shown) [Example 76] | 3 µM
Cc1ccc2c(CC(NC(=O)CCc3ccccc3)C(=O)O)c[nH]c2c1 (stereo not shown) [Example 77] | 1 to 3 µM
CN(C(=O)CCc1ccccc1)[C@@H](Cc1ccccc1)C(=O)O [Example 78] | 3 µM
O=C(CCc1ccccc1)NC(C(=O)O)c1ccccc1 (stereo not shown) [Example 79] | 10 µM
N[C@@H](Cc1ccccc1)C(=O)Nc1c(O)cccc1O [Example 80] | 3 µM
N[C@@H](CCc1ccccc1)C(=O)Nc1c(O)cccc1O [Example 81] | 3 µM
O=C(N[C@@H](Cc1ccccc1)C(=O)O)c1c(O)cccc1O [Example 82] | 1 µM
O=C(N[C@@H](CCc1ccccc1)C(=O)O)c1c(O)cccc1O [Example 83] | 0.3-1^ μM
O=C(NCCc1c[nH]c2ccccc12)c1c(O)cccc1O [Example 84] | 0.3 µM
O=C(CCc1c[nH]c2ccccc12)Nc1c(O)cccc1O [Example 87] | 3 µM
COc1ccc(CCC(=O)Nc2c(O)cccc2O)cc1O [Example 89] | 10 µM
O=C(NCCc1c[nH]c2ccc(O)cc12)c1cc(Br)ccc1O [Example 93] | 0.3 µM
N[C@@H](CCc1ccccc1)C(=O)Nc1ccccc1S(=O)(=O)O [Example 103] | 1 µM
O=C(NCCc1c[nH]c2ccc(O)cc12)c1ccc(Br)cc1O [Example 104] | 3 µM
O=C(N[C@@H](Cc1ccccc1)C(=O)O)c1ccc(Br)cc1O [Example 108] | 0.1 to 0.3 µM
CCOC(=O)[C@H](Cc1ccccc1)NC(=O)c1c(O)cc(C)cc1O [Example 114] | 10 µM
Cc1cc(O)c(C(=O)N[C@@H](Cc2ccccc2)C(=O)O)c(O)c1 [Example 115] | 0.3 µM
COC(=O)[C@H](CCc1ccccc1)NC(=O)c1c(O)cc(C)cc1O [Example 116] | 3 to 10 µM
Cc1cc(O)c(C(=O)N[C@@H](CCc2ccccc2)C(=O)O)c(O)c1 [Example 117] | 0.3 µM
COC(=O)[C@H](Cc1ccccc1)NC(=O)c1c(O)cc(C)cc1O [Example 118] | 10 µM
N[C@@H](Cc1c[nH]c2ccccc12)C(=O)Nc1ccccc1S(=O)(=O)O [Example 119] | 0.3 µM
O=C(N[C@@H](Cc1c[nH]c2ccccc12)C(=O)O)c1c(O)cc(O)cc1O [Example 121] | 3 µM
COC(=O)[C@H](Cc1ccccc1)NC(=O)c1c(O)cc(O)cc1O [Example 122] | 1 µM
O=C(N[C@@H](Cc1ccccc1)C(=O)O)c1c(O)cc(O)cc1O [Example 123] | 10 µM

More lines, now with the values ahead:

MED value (minimum effective dose) | Structure (SMILES)
3 to 10 µM | COC(=O)[C@H](Cc1c[nH]c2ccccc12)NC(=O)c1cc(Br)ccc1O [Example 92]
1 µM | O=C(NCCc1c[nH]c2ccccc12)c1cc(Br)ccc1O [Example 95]
1 µM | COC(=O)[C@H](Cc1ccccc1)NC(=O)c1cc(Br)ccc1O [Example 96]
10 µM | COC(=O)[C@H](CCc1ccccc1)NC(=O)c1cc(Br)ccc1O [Example 98]
3 µM | COC(=O)[C@H](Cc1c[nH]c2ccccc12)NC(=O)c1ccc(Br)cc1O [Example 106]
3 µM | COC(=O)[C@H](Cc1ccccc1)NC(=O)c1ccc(Br)cc1O [Example 107]
3 µM | CCOC(=O)[C@H](Cc1ccccc1)NC(=O)c1cc(Br)ccc1O [Example 109]
0.1 to 0.3 µM | O=C(N[C@@H](Cc1c[nH]c2ccccc12)C(=O)O)c1ccc(Br)cc1O [Example 110]
1 µM | COC(=O)[C@H](Cc1c[nH]c2ccccc12)NC(=O)c1c(O)cc(C)cc1O [Example 112]
0.3 µM | Cc1cc(O)c(C(=O)N[C@@H](Cc2c[nH]c3ccccc23)C(=O)O)c(O)c1 [Example 113]
0.3 µM | COC(=O)[C@H](Cc1c[nH]c2ccccc12)NC(=O)c1c(O)cc(O)cc1O [Example 120]

Source: US20130196050A1, “SALTY TASTE ENHANCER” (AJINOMOTO CO., INC., priority 2010, published 2013)
